These results are taken from patent publication US12716903B2, “Microfluidic chip-based, universal coagulation assay” (Perosphere Technologies Inc., priority 2014, dated 2026).

For this assay, the system named is blood. Put plainly: Blood clotting time on microfluidic closed device chip, by IR light transmission and impedance. More on the design: species or system patient. Conditions: PER977 added to blood sample containing edoxaban, both at 300 ng/mL; IR and impedance curves; room temperature. The protocol:
For detection of clotting through measurement of impedances, a sample is loaded into the chip, the chip is inserted into its reader, and the pogo pins connecting to the internal impedance electrodes connected via Kelvin clip leads to a QuadTech 1920 LCR meter. The magnitude and the phase of the complex impedance of the blood sample were recorded at 15 second intervals. […] The peaks or plateaus indicated a measure for the clotting time.
For optical clot detection, IR LED and photodiode are inserted into their reader parts as described above. A blood sample is pipetted into the chip and the chip placed into the reader. The sample is continuously illuminated with IR light at 1,300 nm. At time intervals of typically 100 ms, the voltage drop across a 1 MOhm resistor caused by the photocurrent of the photodiode was recorded. Voltages typically measured several volts. Clotting of the sample caused the transmitted light and the photocurrent to vary over time. Characteristic peaks of the transmitted light curve indicated a measure for the clotting time.
Blood was harvested from a patient using commercially available lancing devices. 10 μL of blood were obtained and pipetted into an Eppendorf tube. […]
Edoxaban is a commercially available anticoagulant. […] The chip was inserted into its reader, and both IR light and impedance measurements were immediately recorded at room temperature (approximately 27° C.). […]

Regarding `N=C(N)NCCC[C@H](N)C(=O)NCCCN1CCN(CCCNC(=O)[C@@H](N)CCCNC(=N)N)CC1` [PER977, ciraparantag], the “characteristic peak indicative of the sample clotting time” value turned out to be 2 min and the “occurrence of a local minimum around 12 minutes” value is reported as “suppresses the occurrence of a local minimum”.
